Data reported in patent US20190194209A1, “PYRAZOLE CARBOXAMIDE COMPOUNDS AND METHODS OF USE” (Genentech, Inc., priority 2014, published 2019).
Read-outs that look alike come from different tables or passages of the source.

Tests used:
[1] = tested on: CD69 production by B lymphocytes in human whole blood activated with goat F(ab')2 anti-human IgM; experiment: CD69 Whole Blood Assay (Example 907); format: cell-based; details: Lymphocyte, read-out: CD69 Hu Blood FACS (IC70)
From the text: A CD69 Whole Blood Assay can be conducted on Formula I compounds to determine the ability of compounds to inhibit the production of CD69 by B lymphocytes in human whole blood activated by crosslinking surface IgM with goat F(ab′)2 anti-human IgM (Example 907). CD69 is a type II C-type lectin involved in lymphocyte migration and cytokine secretion. CD69 expression represents one of the earliest available indicators of leukocyte activation and its rapid induction occurs through transcriptional activation (Vazquez et al (2009) Jour. of Immunology Published Oct. 19, 2009, doi: 10.4049/jimmunol.0900839). Concentration-dependent inhibition of antigen receptor stimulation by selective Btk inhibitors induces cell surface expression of the lymphocyte activation marker CD69 (Honigberg et al (2010) Proc. Natl. Acad. Sci. 107(29):13075-13080). Thus, CD69 inhibition by selective Btk inhibitors may be correlated with therapeutic efficacy of certain B-cell disorders.
Human blood is obtained from healthy volunteers, with the following restrictions: 1 week drug-free, non-smokers. Blood (approximately 20 mls to test 8 compounds) is collected by venipuncture into Vacutainer® (Becton, Dickinson and Co.) tubes with sodium heparin.
Solutions of Formula I compounds at 10 mM in DMSO are diluted 1:10 in 100% DMSO, then are diluted by three-fold serial dilutions in 100% DMSO for a ten point dose-response curve. The compounds are further diluted 1:10 in PBS and then an aliquot of 5.5 μl of each compound is added in duplicate to a 2 ml 96-well plate; 5.5 μl of 10% DMSO in PBS is added as control and no-stimulus wells. Human whole blood—HWB (100 μl) is added to each well. After mixing the plates are incubated at 37° C., 5% CO2, 100% humidity for 30 minutes. Goat F(ab′)2 anti-human IgM (10 μl of a 500 μg/ml solution, 50 μg/ml final) is added to each well (except the no-stimulus wells) with mixing and the plates are incubated for an additional 20 hours. At the end of the 20 hour incubation, samples are incubated with fluorescent labeled antibodies for 30 minutes, at 37° C., 5% CO2, 100% humidity. Include induced control, unstained and single stains for compensation adjustments and initial voltage settings. Samples are then lysed with PharM Lyse™ (BD Biosciences Pharmingen) according to the manufacturer's instructions. Samples are then transferred to a 96 well plate suitable to be run on the BD Biosciences HTS 96 well system on the LSRII machine. Data acquired and Mean Fluorescence Intensity values were obtained using BD Biosciences DIVA Software. Results are initially analyzed by FACS analysis software (Flow Jo).

[2] = target: T1, full length human wildtype Btk (Homo sapiens, UniProt Q06187); experiment: Biochemical Btk Kinase Assay (Example 901); details: read-out: BTK LC3K (Ki)
T1 construct: V5 (C); 6xHis (C); made in house; host or cells: Sf9 cells (baculovirus, pFastBac)
T1 sequence (Q06187 whole entry): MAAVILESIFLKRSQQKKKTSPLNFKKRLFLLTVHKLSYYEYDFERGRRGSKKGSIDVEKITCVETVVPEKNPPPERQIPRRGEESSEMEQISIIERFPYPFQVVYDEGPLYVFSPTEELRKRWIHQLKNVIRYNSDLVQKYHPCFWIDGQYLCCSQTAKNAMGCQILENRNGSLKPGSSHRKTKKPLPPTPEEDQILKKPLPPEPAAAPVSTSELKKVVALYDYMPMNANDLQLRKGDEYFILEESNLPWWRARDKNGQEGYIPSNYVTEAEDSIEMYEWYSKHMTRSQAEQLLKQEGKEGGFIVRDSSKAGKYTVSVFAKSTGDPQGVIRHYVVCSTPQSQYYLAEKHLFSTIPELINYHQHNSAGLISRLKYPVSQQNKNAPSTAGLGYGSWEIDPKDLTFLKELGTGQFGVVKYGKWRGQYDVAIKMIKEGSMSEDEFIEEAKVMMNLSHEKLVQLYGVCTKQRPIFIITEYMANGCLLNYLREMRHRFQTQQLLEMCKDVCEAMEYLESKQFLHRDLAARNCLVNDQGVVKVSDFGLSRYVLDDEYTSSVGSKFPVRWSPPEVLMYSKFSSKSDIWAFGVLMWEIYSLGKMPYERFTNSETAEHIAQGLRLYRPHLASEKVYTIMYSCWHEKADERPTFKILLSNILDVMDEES
Method: Formula I compounds were tested by a standard biochemical Btk, Kinase Assay (Example 901). A generalized procedure for a standard biochemical Btk, Kinase Assay that can be used to test Formula I compounds is as follows. A master mix minus Btk enzyme is prepared containing 1× Cell Signaling kinase buffer (25 mM Tris-HCl, pH 7.5, 5 mM beta-glycerophosphate, 2 mM dithiothreitol, 0.1 mM Na3VO4, 10 mM MgCl2), 0.5 μM Promega PTK Biotinylated peptide substrate 2, and 0.01% BSA. A master mix plus Btk enzyme is prepared containing 1× Cell Signaling kinase buffer, 0.5 μM (micromolar) PTK Biotinylated peptide substrate 2, 0.01% BSA, and 100 ng/well (0.06 mU/well) Btk enzyme. Btk enzyme is prepared as follows: full length human wildtype Btk (accession number NM-000061) with a C-terminal V5 and 6×His tag was subcloned into pFastBac® vector (Invitrogen/Life Technologies) for making baculovirus carrying this epitope-tagged Btk. Generation of baculovirus is done based on Invitrogen's instructions detailed in its published protocol “Bac-to-Bac Baculovirus Expression Systems” (Invitrogen/Life Technologies, Cat. Nos. 10359-016 and 10608-016). Passage 3 virus is used to infect Sf9 cells to overexpress the recombinant Btk protein. The Btk protein is then purified to homogeneity using Ni-NTA column. The purity of the final protein preparation is greater than 95% based on the sensitive Sypro-Ruby staining. A solution of 200 μM ATP is prepared in water and adjusted to pH 7.4 with 1N NaOH. A quantity of 1.25 μL (microliter) of compounds in 5% DMSO is transferred to a 96-well 2 area Costar polystyrene plate. Compounds are tested singly and with an 11-point dose-responsive curve (starting concentration is 10 μM; 1:2 dilution). A quantity of 18.75 μL of master mix minus enzyme (as a negative control) and master mix plus enzyme is transferred to appropriate wells in 96-well 2 area costar polystyrene plate. 5 μL of 200 μM ATP is added to that mixture in the 96-well 2 area Costar polystyrene plate for final ATP concentration of 40 μM. The reaction is allowed to incubate for 1 hour at room temperature. The reaction is stopped with Perkin Elmer 1× detection buffer containing 30 mM EDTA, 20 nM SA-APC, and 1 nM PT66 Ab. The plate is read using time-resolved fluorescence with a Perkin Elmer Envision using excitation filter 330 nm, emission filter 665 nm, and 2nd emission filter 615 nm. IC50 values are subsequently calculated. Alternatively, the Lanthascreen assay can be used to evaluate Btk activity through quantification of its phosphorylated peptide product. The FRET (Fluorescence Resonance Energy Transfer) that occurs between the fluorescein on the peptide product and the terbium on the detection antibody decreases with the addition of inhibitors of Btk that reduce the phosphorylation of the peptide. In a final reaction volume of 25 μL (microliters), Btk (h) (0.1 ng/25 μl reaction) is incubated with 50 mM Hepes pH 7.5, 10 mM MgCl2, 2 mM MnCl2, 2 mM DTT, 0.2 mM NaVO4, 0.01% BSA, and 0.4 uM fluorescein poly-GAT. The reaction is initiated by the addition of ATP to 25 μM (micromolar) the Km of ATP. After incubation for 60 minutes at room temperature, the reaction is stopped by the addition of a final concentration of 2 nM Tb-PY20 detection antibody in 60 mM EDTA for 30 minutes at room temperature. Detection is determined on a Perkin Elmer Envision with 340 nm excitation and emission at 495 nm and 520 nm. Exemplary Btk inhibition […] values are in Table 1.

[3] = human whole blood, anti-IgM stimulated, 20 hour incubation, CD20 positive cells, FACS

SMILES | Ki [2] [nM] | IC70 ([1]; Homo sapiens, 20 h) [nM] | IC70 [1, 3] [nM]
CC1(C)Cc2cc3n(c2C1)CCN(c1nccc(-n2cc(C(N)=O)c(N)n2)c1CO)C3=O [Example 117, 3-amino-1-[2-(7,7-dimethyl-4-oxo-1,2,6,8-tetrahydrocyclopenta[3,4]pyrrolo[3,5-b]pyrazin-3-yl)-3-(hydroxymethyl)-4-pyridyl]pyrazole-4-carboxamide] | 2.45 | 494 | 
CC(C)(C)c1cc(F)c2c(=O)n(-c3nccc(-n4cc(C(N)=O)c(Nc5ccc(N6CCNCC6)cn5)n4)c3CO)ncc2c1 [Example 118, 1-[2-(6-tert-butyl-8-fluoro-1-oxo-phthalazin-2-yl)-3-(hydroxymethyl)-4-pyridyl]-3-[(5-piperazin-1-yl-2-pyridyl)amino]pyrazole-4-carboxamide] | 0.248 |  | 574
Cn1cc(Nc2nn(-c3ccnc(N4CCn5c(cc6c5CC(C)(C)C6)C4=O)c3CO)cc2C(N)=O)nn1 [Example 119, 1-[2-(7,7-dimethyl-4-oxo-1,2,6,8-tetrahydrocyclopenta[3,4]pyrrolo[3,5-b]-pyrazin-3-yl)-3-(hydroxymethyl)-4-pyridyl]-3-[(1-methyltriazol-4-yl)amino]pyrazole-4-carboxamide] | 0.317 |  | 47.2
CC(C)(C)c1cc(F)c2c(=O)n(-c3nccc(-n4cc(C(N)=O)c(-c5cnn(C(F)F)c5)n4)c3CO)ncc2c1 [Example 121, 1-[2-(6-tert-butyl-8-fluoro-1-oxo-phthalazin-2-yl)-3-(hydroxymethyl)-4-pyridyl]-3-[1-(difluoromethyl)pyrazol-4-yl]pyrazole-4-carboxamide] | 1.15 |  | 1400
Cc1nn(C)cc1-c1nn(-c2ccnc(-n3ncc4cc(C(C)(C)C)cc(F)c4c3=O)c2CO)cc1C(N)=O [Example 122, 1-[2-(6-tert-butyl-8-fluoro-1-oxo-phthalazin-2-yl)-3-(hydroxymethyl)-4-pyridyl]-3-(1,3-dimethylpyrazol-4-yl)pyrazole-4-carboxamide] | 8.6 |  | 3300
CCC(=O)Nc1nn(-c2ccnc(N3CCn4c(cc5c4CC(C)(C)C5)C3=O)c2CO)cc1C(N)=O [Example 123, 1-[2-(7,7-dimethyl-4-oxo-1,2,6,8-tetrahydrocyclopenta[3,4]pyrrolo[3,5-b]pyrazin-3-yl)-3-(hydroxymethyl)-4-pyridyl]-3-(propanoylamino)pyrazole-4-carboxamide] | 32.1 |  | 685
Cn1cc(-c2nn(-c3cc(F)cc(-n4ncc5cc(C(C)(C)C)cc(F)c5c4=O)c3CO)cc2C(N)=O)cn1 [Example 127, 1-[3-(6-tert-butyl-8-fluoro-1-oxo-phthalazin-2-yl)-5-fluoro-2-(hydroxymethyl)phenyl]-3-(1-methylpyrazol-4-yl)pyrazole-4-carboxamide] | 1.3 |  | 5000

Stronger by Ki [2], values ahead:

Ki [2] [nM] | SMILES | IC70 ([1]; Homo sapiens, 20 h) [nM] | IC70 [1, 3] [nM]
0.106 | C[C@H]1CN(C2COC2)CCN1c1ccc(Nc2nn(-c3ccnc(-n4ncc5cc(C(C)(C)C)cc(F)c5c4=O)c3CO)cc2C(N)=O)nc1 [Example 120, 1-[2-(6-tert-butyl-8-fluoro-1-oxo-phthalazin-2-yl)-3-(hydroxymethyl)-4-pyridyl]-3-[[5-[(2S)-2-methyl-4-(oxetan-3-yl)piperazin-1-yl]-2-pyridyl]amino]pyrazole-4-carboxamide] |  | 98.6
0.156 | C[C@H]1CN(C2COC2)CCN1c1ccc(Nc2cn(-c3ccnc(N4CCn5c(cc6c5CC(C)(C)C6)C4=O)c3CO)nc2C(N)=O)nc1 [Example 126, 1-[2-(7,7-dimethyl-4-oxo-1,2,6,8-tetrahydrocyclopenta[3,4]pyrrolo[3,5-b]pyrazin-3-yl)-3-(hydroxymethyl)-4-pyridyl]-4-[[5-[(2S)-2-methyl-4-(oxetan-3-yl)piperazin-1-yl]-2-pyridyl]amino]pyrazole-3-carboxamide] |  | 6.4
0.103 | C[C@H]1CN(C2COC2)CCN1c1ccc(Nc2nn(-c3cc(F)cc(N4CCn5c(cc6c5CC(C)(C)C6)C4=O)c3CO)cc2C(N)=O)nc1 [Example 145, 1-[3-(7,7-dimethyl-4-oxo-1,2,6,8-tetrahydrocyclopenta[3,4]pyrrolo[3,5-b]pyrazin-3-yl)-5-fluoro-2-(hydroxymethyl)phenyl]-3-[[5-[(2S)-2-methyl-4-(oxetan-3-yl)piperazin-1-yl]-2-pyridyl]amino]pyrazole-4-carboxamide] |  | 30.4
